Measured values as given in US20230121313A1 (priority 2019, published 2023).

Tested on: patients with treatment-resistant depression (TRD)
Assay: Adverse events, phase 2 dose-response study in TRD
Format: in vivo, human
Details: for Dissociation, number of participants / Dissociative disorder, % of participants / Dissociative disorder, number of participants / Dizziness, % of participants / Dizziness, number of participants / Dysgeusia, % of participants / Dysgeusia, number of participants / Feeling abnormal, % of participants / Feeling abnormal, number of participants / Headache, % of participants / Headache, number of participants / Hypersomnia, % of participants / Hypersomnia, number of participants / Hypertension, number of participants / Hypoesthesia oral, % of participants / Hypoesthesia oral, number of participants / Insomnia, number of participants / Nasal discomfort, number of participants / Nausea, % of participants / Nausea, number of participants / Oropharyngeal pain, number of participants / Polyuria, number of participants / Sedation, % of participants / Sedation, number of participants / Throat irritation, % of participants / Throat irritation, number of participants / Total with events, % of participants / Total with events, number of participants / Tunnel vision, number of participants / Vertigo, % of participants / Vertigo, number of participants / Vision blurred, number of participants / Dissociation, % of participants / Hypertension, % of participants / Insomnia, % of participants / Nasal discomfort, % of participants / Oropharyngeal pain, % of participants / Polyuria, % of participants / Tunnel vision, % of participants / Vision blurred, % of participants: double-blind
Description: Adverse events were monitored throughout the study. Other safety assessments (i.e., laboratory tests, vital signs, physical examination) were performed at pre-specified time points. Vital signs, the Clinician Administered Dissociative States Scale (CADSS; Bremner, “Measurement of dissociative states with the clinician-administered dissociative states scale (CADSS)”, J. Traumatic Stress, 1998, 11(1):125-136), and the 4-item positive symptom subscale from the Brief Psychiatric Rating Scale (BPRS; Overall, “The Brief Psychiatric Rating Scale. Psychological Reports”, 1962, 10:799-812) were assessed pre-dose, at 40 minutes, and 2 hours post-dose.
Safety data were analyzed in Period 1, Period 2, double-blind, and open-label data sets, for all subjects receiving at least 1 dose of study medication.

## CN[C@]1(c2ccccc2Cl)CCCCC1=O [esketamine, (S)-2-(2-chlorophenyl)-2-(methylamino)cyclohexanone]
Esketamine 28 mg, N = 19
  Dissociation, number of participants: 0
  Dissociative disorder, % of participants: (11) %
  Dissociative disorder, number of participants: 2
  Dizziness, % of participants: (21) %
  Dizziness, number of participants: 4
  Dysgeusia, % of participants: (11) %
  Dysgeusia, number of participants: 2
  Feeling abnormal, % of participants: (11) %
  Feeling abnormal, number of participants: 2
  Headache, % of participants: (32) %
  Headache, number of participants: 6
  Hypersomnia, % of participants: (11) %
  Hypersomnia, number of participants: 2
  Hypertension, number of participants: 0
  Hypoesthesia oral, % of participants: (5) %
  Hypoesthesia oral, number of participants: 1
  Insomnia, number of participants: 0
  Nasal discomfort, number of participants: 0
  Nausea, % of participants: (11) %
  Nausea, number of participants: 2
  Oropharyngeal pain, number of participants: 0
  Polyuria, number of participants: 0
  Sedation, % of participants: (5) %
  Sedation, number of participants: 1
  Throat irritation, % of participants: (5) %
  Throat irritation, number of participants: 1
  Total with events, % of participants: (58) %
  Total with events, number of participants: 11
  Tunnel vision, number of participants: 0
  Vertigo, % of participants: (11) %
  Vertigo, number of participants: 2
  Vision blurred, number of participants: 0
Esketamine 56 mg, N = 20
  Dissociation, % of participants: (35) %
  Dissociation, number of participants: 7
  Dissociative disorder, % of participants: (5) %
  Dissociative disorder, number of participants: 1
  Dizziness, % of participants: (40) %
  Dizziness, number of participants: 8
  Dysgeusia, % of participants: (15) %
  Dysgeusia, number of participants: 3
  Feeling abnormal, % of participants: (5) %
  Feeling abnormal, number of participants: 1
  Headache, % of participants: (15) %
  Headache, number of participants: 3
  Hypersomnia, number of participants: 0
  Hypertension, % of participants: (10) %
  Hypertension, number of participants: 2
  Hypoesthesia oral, % of participants: (20) %
  Hypoesthesia oral, number of participants: 4
  Insomnia, % of participants: (10) %
  Insomnia, number of participants: 2
  Nasal discomfort, % of participants: (10) %
  Nasal discomfort, number of participants: 2
  Nausea, % of participants: (20) %
  Nausea, number of participants: 4
  Oropharyngeal pain, % of participants: (5) %
  Oropharyngeal pain, number of participants: 1
  Polyuria, % of participants: (10) %
  Polyuria, number of participants: 2
  Sedation, % of participants: (10) %
  Sedation, number of participants: 2
  Throat irritation, number of participants: 0
  Total with events, % of participants: (80) %
  Total with events, number of participants: 16
  Tunnel vision, number of participants: 0
  Vertigo, % of participants: (5) %
  Vertigo, number of participants: 1
  Vision blurred, number of participants: 0
Esketamine 84 mg, N = 17
  Dissociation, % of participants: (24) %
  Dissociation, number of participants: 4
  Dissociative disorder, % of participants: (24) %
  Dissociative disorder, number of participants: 4
  Dizziness, % of participants: (47) %
  Dizziness, number of participants: 8
  Dysgeusia, % of participants: (29) %
  Dysgeusia, number of participants: 5
  Feeling abnormal, % of participants: (6) %
  Feeling abnormal, number of participants: 1
  Headache, % of participants: (18) %
  Headache, number of participants: 3
  Hypersomnia, number of participants: 0
  Hypertension, % of participants: (6) %
  Hypertension, number of participants: 1
  Hypoesthesia oral, % of participants: (12) %
  Hypoesthesia oral, number of participants: 2
  Insomnia, number of participants: 0
  Nasal discomfort, % of participants: (6) %
  Nasal discomfort, number of participants: 1
  Nausea, % of participants: (24) %
  Nausea, number of participants: 4
  Oropharyngeal pain, % of participants: (12) %
  Oropharyngeal pain, number of participants: 2
  Polyuria, number of participants: 0
  Sedation, % of participants: (6) %
  Sedation, number of participants: 1
  Throat irritation, % of participants: (12) %
  Throat irritation, number of participants: 2
  Total with events, % of participants: (88) %
  Total with events, number of participants: 15
  Tunnel vision, % of participants: (12) %
  Tunnel vision, number of participants: 2
  Vertigo, % of participants: (6) %
  Vertigo, number of participants: 1
  Vision blurred, % of participants: (12) %
  Vision blurred, number of participants: 2
Esketamine Total, N = 56
  Dissociation, % of participants: (20) %
  Dissociation, number of participants: 11
  Dissociative disorder, % of participants: (13) %
  Dissociative disorder, number of participants: 7
  Dizziness, % of participants: (36) %
  Dizziness, number of participants: 20
  Dysgeusia, % of participants: (18) %
  Dysgeusia, number of participants: 10
  Feeling abnormal, % of participants: (7) %
  Feeling abnormal, number of participants: 4
  Headache, % of participants: (21) %
  Headache, number of participants: 12
  Hypersomnia, % of participants: (4) %
  Hypersomnia, number of participants: 2
  Hypertension, % of participants: (5) %
  Hypertension, number of participants: 3
  Hypoesthesia oral, % of participants: (13) %
  Hypoesthesia oral, number of participants: 7
  Insomnia, % of participants: (4) %
  Insomnia, number of participants: 2
  Nasal discomfort, % of participants: (5) %
  Nasal discomfort, number of participants: 3
  Nausea, % of participants: (18) %
  Nausea, number of participants: 10
  Oropharyngeal pain, % of participants: (5) %
  Oropharyngeal pain, number of participants: 3
  Polyuria, % of participants: (4) %
  Polyuria, number of participants: 2
  Sedation, % of participants: (7) %
  Sedation, number of participants: 4
  Throat irritation, % of participants: (5) %
  Throat irritation, number of participants: 3
  Total with events, % of participants: (75) %
  Total with events, number of participants: 42
  Tunnel vision, % of participants: (4) %
  Tunnel vision, number of participants: 2
  Vertigo, % of participants: (7) %
  Vertigo, number of participants: 4
  Vision blurred, % of participants: (4) %
  Vision blurred, number of participants: 2
Phase 2, double-blind phase
  Participants with adverse events leading to discontinuation of study drug: 5%
Phase 2, open-label phase
  Adverse event dizziness, % of participants: 38.6%
  Adverse event dysgeusia, % of participants: 22.8%
  Adverse event headache, % of participants: 14.0%
  Adverse event nausea, % of participants: 15.8%
  Adverse event sedation, % of participants: 10.5%
  Participants reporting transient dissociative symptoms: 24.6%
  Participants with adverse events leading to discontinuation of study drug: 2%
